Patent US9121022B2, “Method for controlling herbicide-resistant plants” (priority 2010, dated 2015)

Tested on: endogenous Nicotiana benthamiana Argonaute-1 (AGO1) gene
Experiment: AGO1 anti-sense polynucleotides with or without PDS anti-sense polynucleotide, systemic bleaching (Example 33)
Type: in vivo
Conditions: PDS 25 nanomoles; AGO1 50 nanomoles of each of 14 polynucleotides; applied on separate leaves
Source text: A second set of experiments was designed to investigate the effects of silencing a component of the endogenous RNAi silencing pathway in a plant. Argonaute (AGO) proteins are components of the RNA-induced silencing complex (RISC) which binds small RNAs in the RNAi silencing process. Suppression of Argonaute would be expected to reduce the observed phenotypic effect caused by an RNAi silencing process. AGO1 anti-sense polynucleotides with the sequences […] (HL510, SEQ ID NO:300), […] (HL511, SEQ ID NO:301), […] (HL512, SEQ ID NO:302), […] (HL513, SEQ ID NO:303), […] (HL514, SEQ ID NO:304), […] (HL515, SEQ ID NO:305), […] (HL516, SEQ ID NO:306), […] (HL517, SEQ ID NO:307), […] (HL518, SEQ ID NO:308), […] (HL519, SEQ ID NO:309), […] (HL520, SEQ ID NO:310), […] (HL521, SEQ ID NO:311), […] (HL522, SEQ ID NO:312), […] (HL523, SEQ ID NO:313) were designed for the endogenous Nicotiana benthamiana Argonaute-1 (AGO1) gene, based on two Nicotiana benthamiana AGO1-2 partial cDNA sequences, • […] […] […] […] […] […] […] […] […] […] […] […] […] […] […] […] […] […] […] […] […] […] […] […] […] […] […] […] […] […] […] […] […] […] […] […] […] […] […] […] […] […] […] GC (SEQ ID NO:314) and • […] […] […] […] […] […] […] […] […] […] […] […] […] […] […] […] […] […] […] […] […] […] […] […] […] […] […] […] […] […] […] […] […] […] […] […] […] […] […] […] […] […] […] […] […] […] […] […] (SEQ ID NO:315).
Nicotiana benthamiana plants were treated using a procedure similar to that described in Example 12. […]

“CATCTCCTTTAATTGTACTGC (DNA, backbone not given here) [PDS 21-mer anti-sense ssDNA]” was tested, and the “systemic bleaching / difference to buffer” value was “displayed systemic bleaching”.
